Common to all, as to test: NCI anticancer screen, dose series, 48 h
In assay [1] the test system is NCI-H522 lung.
Assay [2] has as its system EKVX NSCLC.
Assay [3] has as its system NCI-H226 lung.
The subject of assay [4] is SK-OV-3 ovarian.
Assay [5] deals with SF-539 CNS.
Assay [6] has as its system HOP-62 NSCLC.
Assay [7] concerns 786-0 renal.
Assay [8] concerns A549 NSCLC.
The subject of assay [9] is SN12C renal.
The subject of assay [10] is MOLT-4 leukemia.

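Compound exposure: 48 hours, 5 concentrations, 96-well plates. GI50 is the concentration that inhibits growth by half. TGI: concentration producing complete growth inhibition.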 Bounds are passed on as bounds.

Consider `COC(=O)NC/C=C\c1nc(CC/C=C\C(=O)OC2CC3CC(=O)O[C@@H](/C=C/CC(C)C)C[C@@H]4CCC(C)C(C[C@@H](OC)CC(C2)O3)O4)co1` (stereo partly specified), for which the GI50 is below 0.01 µM in [1]; below 0.01 µM in assay [2]; 24.4 µM in assay [3]; above 100 µM in assay [4]; below 0.01 µM in [5]; below 0.01 µM in assay [6]. In addition, the GI50 in [7] was below 0.01 µM. The TGI in assay [1] is 87.7 µM; in assay [2], above 100 µM; in assay [3] it was above 100 µM; in assay [4], above 100 µM; in assay [5], 38.3 µM; in [6], 79 µM. In assay [7], this compound came in with a TGI of 39.9 µM.
For `CC(=O)OCCOCBr`, the TGI in [1], in assay [2], in assay [3], in assay [4], in assay [5] and in assay [8] was above 100 µM throughout. Also, the TGI in [6], in assay [7] and in assay [9] was above 100 µM throughout.
`O=C(Nc1ccc(S(=O)(=O)N[C@@H](C(=O)O)c2ccccc2)cc1)c1ccc(F)cc1`: the TGI in assay [1], in [2], in [10], in assay [4], in [5] and in [8] was above 100 µM each time. Also, the TGI in assay [7] and in assay [9] was above 100 µM each time.
With `CC(O)CN1C(=O)NC(Cc2ccccc2)C1=O` (stereo unspecified), the TGI in assay [1] was above 100 µM; in assay [2] it was above 100 µM; in [3], above 100 µM; in [5], above 100 µM; in assay [8] it was above 100 µM; in assay [6], 86.3 µM. Moreover, the TGI in assay [7] and in assay [9] was above 100 µM in each case.
As for `C=C1CC(COc2cc(Cl)nc(N)n2)C1`, the GI50 is 27.6 µM in assay [1]; 25.6 µM in assay [2]; 40.2 µM in assay [10]; 42.5 µM in assay [3]; 69.7 µM in assay [4]; 33.9 µM in assay [8]. Besides, the GI50 in assay [7] was 49.5 µM; in [9], 44.1 µM.
Regarding `O=C1c2ccccc2-c2cccc3ccc(Cc4ccccc4)c1c23`, the TGI in [1], in assay [2], in assay [10], in [5], in [8] and in assay [6] was above 100 µM each time. Moreover, the TGI in [7] and in [9] was above 100 µM in each case.
For `CC/C=C\C/C=C\C1CC(=O)NCCCNCCCCN1` (stereo unspecified), the TGI in [1], in assay [2], in [3], in [5], in [8] and in [6] was above 100 µM each time. For the same compound, the TGI in [7] and in [9] was above 100 µM in each case.
Turning to `Cc1ccc2/c(=C/c3ccc(N(C)C)cc3)c3cc(-c4ccccc4)[n+](C)n3c2c1`, the GI50 in assay [1] was 0.0547 µM; in assay [2], 0.0643 µM; in [10], 0.0383 µM; in assay [5], 0.0456 µM; in assay [8] it was 0.0987 µM; in assay [6] it was 0.257 µM. In addition, the GI50 in assay [7] is 0.305 µM. The TGI is above 100 µM in assay [1]; 7.95 µM in [2]; above 100 µM in assay [10]; 2.21 µM in assay [5]; above 100 µM in [8]; 7.33 µM in [6]. In addition, in [7], the TGI amounted to 2.92 µM.
With `CNc1nc(NC2CCCC2)nc(Sc2ccc(OC)cc2)n1`, the GI50 in assay [1], in assay [10], in assay [3], in assay [4], in [5] and in assay [8] was above 10 µM throughout. Also, the GI50 in [6], in assay [7] and in [9] was above 10 µM throughout. The TGI in assay [1], in [10], in [3], in [4], in [5] and in [8] was above 10 µM in each case. For the same compound, the TGI in assay [6], in [7] and in assay [9] was above 10 µM in each case.
Turning to `N#Cc1c(N)c(C(=O)O)nn(-c2cccc(C(F)(F)F)c2)c1=O`, the TGI in [1], in assay [2], in assay [10], in [4], in [5] and in assay [8] was above 100 µM throughout. Besides, the TGI in assay [7] and in assay [9] was above 100 µM each time.
Turning to `Nc1ccc(SC23CC4CC(CC(C4)C2)C3)cc1`, the TGI in assay [1], in assay [2], in assay [4], in assay [5], in [8] and in [6] was above 100 µM in each case. The TGI in [7] and in assay [9] was above 100 µM throughout.
